Test results reported in publication PMC11606603, “The membrane domains of mammalian adenylyl cyclases are lipid receptors” (eLife, 2024).
Values joined by “and” are separate entries in the source; they are usually repeats but may differ in a detail not shown here. Identical values can stand only once. Like-named read-outs stand apart in the source and are kept apart here.

What was measured:
[1] = biological target: T1, HEK293 cells permanently transfected with mAC5 (Homo sapiens, UniProt O95622); assay: cAMP accumulation assay, isoproterenol-stimulated HEK-mAC5 cells; format: cell-based
T1 construct: Human mAC genes were from GenScript and fitted with a C-terminal FLAG-tag; FLAG (C); expressed in transfected cells; host or cells: HEK293, permanently transfected
T1 sequence (O95622 whole entry): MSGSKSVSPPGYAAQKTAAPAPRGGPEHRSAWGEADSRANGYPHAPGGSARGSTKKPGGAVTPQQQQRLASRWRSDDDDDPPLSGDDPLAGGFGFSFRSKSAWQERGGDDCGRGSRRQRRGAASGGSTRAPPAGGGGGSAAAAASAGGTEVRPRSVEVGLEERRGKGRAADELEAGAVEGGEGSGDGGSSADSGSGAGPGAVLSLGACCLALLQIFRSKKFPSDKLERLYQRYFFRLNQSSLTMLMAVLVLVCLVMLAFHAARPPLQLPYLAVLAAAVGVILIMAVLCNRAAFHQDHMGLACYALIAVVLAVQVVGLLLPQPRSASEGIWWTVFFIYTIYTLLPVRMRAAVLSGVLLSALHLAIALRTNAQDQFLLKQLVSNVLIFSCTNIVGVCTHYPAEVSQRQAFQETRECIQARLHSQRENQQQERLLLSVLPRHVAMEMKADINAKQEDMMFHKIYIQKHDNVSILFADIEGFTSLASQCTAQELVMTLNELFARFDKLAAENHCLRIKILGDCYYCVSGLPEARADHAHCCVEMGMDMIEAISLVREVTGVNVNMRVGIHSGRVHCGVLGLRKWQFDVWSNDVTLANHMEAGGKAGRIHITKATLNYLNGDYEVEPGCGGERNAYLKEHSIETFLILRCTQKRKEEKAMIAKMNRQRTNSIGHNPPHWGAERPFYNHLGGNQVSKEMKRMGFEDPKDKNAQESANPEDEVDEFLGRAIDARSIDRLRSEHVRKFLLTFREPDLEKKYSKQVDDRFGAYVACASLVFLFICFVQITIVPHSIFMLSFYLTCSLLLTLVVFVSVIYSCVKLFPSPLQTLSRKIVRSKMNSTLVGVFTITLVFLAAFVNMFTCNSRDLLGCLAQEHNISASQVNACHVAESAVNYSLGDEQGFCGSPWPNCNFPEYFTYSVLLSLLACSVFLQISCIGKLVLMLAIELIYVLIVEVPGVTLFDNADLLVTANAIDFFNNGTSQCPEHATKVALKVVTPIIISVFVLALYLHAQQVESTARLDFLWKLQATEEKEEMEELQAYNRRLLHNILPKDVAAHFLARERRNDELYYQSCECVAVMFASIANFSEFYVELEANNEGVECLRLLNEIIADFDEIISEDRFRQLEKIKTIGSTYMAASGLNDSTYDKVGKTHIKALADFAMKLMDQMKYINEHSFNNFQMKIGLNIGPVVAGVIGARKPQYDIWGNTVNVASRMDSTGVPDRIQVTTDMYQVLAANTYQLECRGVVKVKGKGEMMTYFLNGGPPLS
Method: (§1) hAC sequences were from NCBI were: ADCY1: NM_021116.3; ADCY2: NM_020546.2; ADCY3: NM_004036.4; ADCY4: NM_001198568.2; ADCY5: NM_183357.2; ADCY6: NM_015270.4; ADCY7: NM_001114.4; ADCY8: NM_001115.2; ADCY9: NM_001116.3. Human mAC genes were from GenScript and fitted with a C-terminal FLAG-tag. […] The gene was synthesized by GenScript. HEK293 cells were maintained in Dulbeccos Modified Eagle Medium (DMEM) with 10% fetal bovine serum at 37°C and 5% CO2. Transfection with AC plasmids was with PolyJet (SignaGen, Frederick, MD, USA). Permanent cell lines were generated by selection for 7 days with 600 µg/ml G418 and maintained with 300 µg/ml For membrane preparation, cells were tyrpsinized, collected by centrifugation (3000 × g, 5 min) and lysed and homogenized in 20 mM HEPES, pH 7.5, 1 mM Ethylenediaminetetraacetic acid (EDTA), 2 mM MgCl2, 1 mM Dithiothreitol (DTT), one tablet of cOmplete, EDTA-free (per 50 ml) and 250 mM sucrose by 20 strokes in a potter homogenizer on ice. Debris was removed (5 min at 1000 × g, 0°C), membranes were collected at 100,000 × g, 60 min at 0°C, suspended and stored at −80°C in 20 mM MOPS, pH 7.5, 0.5 mM EDTA, 2 mM MgCl2. Membrane preparation from mouse brain cortex was according to [Seth et al., 2020]; [Schultz and Schmidt, 1987]. Three cerebral cortices were dissected and homogenized in 4.5 ml cold 48 mM Tris–HCl, pH 7.4, 12 mM MgC1_2, and 0.1 mM Ethylene glycol-bis(β-aminoethyl ether)-N,N,N′,N′-tetraacetic acid (EGTA) with a Polytron hand disperser (Kinematica AG, Switzerland). The homogenate was centrifuged for 15 min at 12,000 × g at 4°C. The pellet was washed once with 5 ml 1 mM KHCO3. The final suspension in 2 ml 1 mM KHCO3 was stored in aliquots at −80°C.
(§2) HEK293 cells stably expressing mAC isoforms 3, 5, and mAC5(membr)_mAC3(cat) were plated at 2500–10,000 cells/well into 384-well plates. […]. Addition of Cisbio HTRF detection reagents stopped the reaction and cAMP levels were determined.

[2] = biological target: T2, HEK293-mAC5(membr)–AC3(cat) cells (Homo sapiens, UniProt O60266+O95622); assay: cAMP accumulation assay, isoproterenol-stimulated HEK-mAC5–3 cells; format: cell-based
T2 construct: followed by AC5(1–402)_AC3(250–631)_AC5(761–1009)_AC3(862–1144); expressed in transfected cells; host or cells: HEK293, stably expressing the chimera
T2 sequence (O95622 1-402): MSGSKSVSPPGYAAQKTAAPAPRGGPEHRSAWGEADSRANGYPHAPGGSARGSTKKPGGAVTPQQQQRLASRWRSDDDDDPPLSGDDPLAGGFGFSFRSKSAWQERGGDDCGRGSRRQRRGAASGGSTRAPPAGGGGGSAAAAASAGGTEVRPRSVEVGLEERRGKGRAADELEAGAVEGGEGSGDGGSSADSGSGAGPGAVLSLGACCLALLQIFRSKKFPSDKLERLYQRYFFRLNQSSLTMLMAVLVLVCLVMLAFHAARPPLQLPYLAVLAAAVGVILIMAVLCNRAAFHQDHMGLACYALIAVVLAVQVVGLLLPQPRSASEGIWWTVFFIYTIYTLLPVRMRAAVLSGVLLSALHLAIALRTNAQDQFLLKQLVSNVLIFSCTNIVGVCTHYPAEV
T2 sequence (O60266 250-631): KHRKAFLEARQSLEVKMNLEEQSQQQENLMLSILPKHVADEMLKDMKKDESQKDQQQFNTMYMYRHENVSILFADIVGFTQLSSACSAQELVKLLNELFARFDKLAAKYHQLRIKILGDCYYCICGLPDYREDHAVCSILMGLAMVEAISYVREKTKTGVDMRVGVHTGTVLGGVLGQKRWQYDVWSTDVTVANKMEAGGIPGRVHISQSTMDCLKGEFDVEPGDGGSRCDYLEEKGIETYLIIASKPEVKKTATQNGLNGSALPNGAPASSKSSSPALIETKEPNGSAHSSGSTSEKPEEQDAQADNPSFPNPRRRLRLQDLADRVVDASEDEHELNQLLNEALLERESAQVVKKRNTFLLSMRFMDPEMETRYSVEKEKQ
T2 sequence (O95622 761-1009): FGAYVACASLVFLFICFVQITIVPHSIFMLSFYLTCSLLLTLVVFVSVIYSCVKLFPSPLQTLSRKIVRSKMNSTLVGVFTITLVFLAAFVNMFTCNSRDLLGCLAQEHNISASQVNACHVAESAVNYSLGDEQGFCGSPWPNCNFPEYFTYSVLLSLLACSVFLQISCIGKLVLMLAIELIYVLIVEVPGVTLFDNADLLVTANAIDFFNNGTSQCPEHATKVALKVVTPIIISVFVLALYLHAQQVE
T2 sequence (O60266 862-1144): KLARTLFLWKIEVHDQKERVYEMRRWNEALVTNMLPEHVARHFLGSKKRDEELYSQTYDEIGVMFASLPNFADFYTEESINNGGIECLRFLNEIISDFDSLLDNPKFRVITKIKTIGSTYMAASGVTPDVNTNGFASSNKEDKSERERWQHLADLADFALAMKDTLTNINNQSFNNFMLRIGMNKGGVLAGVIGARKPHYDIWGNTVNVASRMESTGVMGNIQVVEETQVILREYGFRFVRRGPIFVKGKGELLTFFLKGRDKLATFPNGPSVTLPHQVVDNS
Method: as §1, §2

mAC5(membr)–AC3(cat) = biological target: T3, mAC5(membr)–AC3(cat) (Homo sapiens, UniProt O60266+O95622); assay: AC assay, Gsα-stimulated chimera mAC5–3 in membranes from transfected HEK293 cells; format: biochemical; conditions: for Effect on Gsα-stimulated mAC5(membr)–AC3(cat) chimera: 300 nM Gsα, 20 µM oleic acid or 100 µM anandamide, in words
T3 construct: followed by AC5(1–402)_AC3(250–631)_AC5(761–1009)_AC3(862–1144); made in house; host or cells: HEK293, transfected; membrane preparation
T3 sequence (O95622 1-402): as the sequence (O95622 1-402) above
T3 sequence (O60266 250-631): as the sequence (O60266 250-631) above
T3 sequence (O95622 761-1009): as the sequence (O95622 761-1009) above
T3 sequence (O60266 862-1144): as the sequence (O60266 862-1144) above
Method: as §1
In a volume of 10 μl, AC activities were measured using 1 mM ATP, 2 mM MgCl2, 3 mM creatine phosphate, 60 μg/ml creatine kinase, and 50 mM MOPS pH 7.5. The cAMP assay kit from Cisbio (Codolet, France) was used for detection according to the supplier’s instructions. For each assay, a cAMP standard curve was established. EC50 and IC50 values were calculated by GraphPad Prism version 8.4.3 for Windows, GraphPad Software, San Diego, CA, USA, https://www.graphpad.com .

mAC9 = biological target: T4, mAC9 (Homo sapiens, UniProt O60503); assay: AC assay, Gsα-stimulated mAC9 in membranes from transfected HEK293 cells; format: biochemical
T4 construct: Human mAC genes were from GenScript and fitted with a C-terminal FLAG-tag; FLAG (C); made in house; host or cells: HEK293, permanently transfected; membrane preparation
T4 sequence (O60503 whole entry): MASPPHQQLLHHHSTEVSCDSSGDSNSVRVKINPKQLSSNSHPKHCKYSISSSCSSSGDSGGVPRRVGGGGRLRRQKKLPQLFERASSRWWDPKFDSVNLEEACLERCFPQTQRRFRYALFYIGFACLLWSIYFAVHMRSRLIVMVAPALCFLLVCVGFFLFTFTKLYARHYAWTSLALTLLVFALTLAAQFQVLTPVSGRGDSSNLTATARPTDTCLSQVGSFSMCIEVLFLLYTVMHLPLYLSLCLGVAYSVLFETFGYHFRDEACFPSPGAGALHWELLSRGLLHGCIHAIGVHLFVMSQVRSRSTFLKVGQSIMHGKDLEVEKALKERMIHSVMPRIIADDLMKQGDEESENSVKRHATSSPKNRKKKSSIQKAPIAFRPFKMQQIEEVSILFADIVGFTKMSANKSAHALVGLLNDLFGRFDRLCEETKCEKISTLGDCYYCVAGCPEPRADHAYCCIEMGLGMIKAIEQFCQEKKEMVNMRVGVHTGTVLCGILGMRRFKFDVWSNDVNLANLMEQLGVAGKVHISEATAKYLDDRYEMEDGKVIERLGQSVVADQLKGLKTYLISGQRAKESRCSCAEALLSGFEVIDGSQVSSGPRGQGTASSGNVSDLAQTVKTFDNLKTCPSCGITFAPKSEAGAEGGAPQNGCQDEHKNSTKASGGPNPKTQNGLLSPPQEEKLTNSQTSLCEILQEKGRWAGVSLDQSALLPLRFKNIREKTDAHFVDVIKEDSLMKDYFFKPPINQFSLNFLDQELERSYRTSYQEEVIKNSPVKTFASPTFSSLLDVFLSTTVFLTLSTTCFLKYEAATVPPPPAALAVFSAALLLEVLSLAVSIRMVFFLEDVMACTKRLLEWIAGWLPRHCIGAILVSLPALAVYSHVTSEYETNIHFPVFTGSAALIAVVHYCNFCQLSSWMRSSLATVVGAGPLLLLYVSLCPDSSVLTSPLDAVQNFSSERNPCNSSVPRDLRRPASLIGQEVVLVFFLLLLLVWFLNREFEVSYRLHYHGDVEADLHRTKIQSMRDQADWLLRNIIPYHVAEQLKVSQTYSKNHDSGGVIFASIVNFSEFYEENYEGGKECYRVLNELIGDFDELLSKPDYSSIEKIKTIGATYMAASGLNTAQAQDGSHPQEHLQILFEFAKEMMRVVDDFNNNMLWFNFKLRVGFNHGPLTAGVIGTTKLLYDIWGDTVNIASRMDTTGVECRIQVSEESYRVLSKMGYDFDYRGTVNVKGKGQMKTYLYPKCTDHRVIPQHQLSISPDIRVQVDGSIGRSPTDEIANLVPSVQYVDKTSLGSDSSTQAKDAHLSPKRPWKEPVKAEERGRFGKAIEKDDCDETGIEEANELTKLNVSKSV
T4 sequence (P63092 2-394 Q227L partner): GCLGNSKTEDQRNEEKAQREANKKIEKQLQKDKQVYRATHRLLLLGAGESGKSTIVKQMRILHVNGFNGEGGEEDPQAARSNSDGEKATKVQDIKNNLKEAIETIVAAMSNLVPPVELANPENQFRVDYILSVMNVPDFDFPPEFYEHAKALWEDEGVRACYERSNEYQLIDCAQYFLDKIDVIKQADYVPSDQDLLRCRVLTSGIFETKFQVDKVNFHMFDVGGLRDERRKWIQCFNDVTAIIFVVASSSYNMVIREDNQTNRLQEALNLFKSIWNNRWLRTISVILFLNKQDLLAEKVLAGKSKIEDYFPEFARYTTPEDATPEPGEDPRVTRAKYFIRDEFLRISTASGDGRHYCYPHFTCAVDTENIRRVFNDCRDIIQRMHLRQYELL
How it was run: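 cAMP detected with a Cisbio kit, calibrated by a cAMP standard curve each run. Reaction: 1 mM ATP, 2 mM MgCl2, 3 mM creatine phosphate, 60 μg/ml creatine kinase, 50 mM MOPS pH 7.5. Enzyme source: membranes of stably transfected HEK293 (G418-selected) carrying FLAG-tagged human AC.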

[3] = 20 µM fatty acid, 300 nM Gsα, single experiments

CCCCC/C=C\C/C=C\C/C=C\C/C=C\CCCC(=O)NCCO [Anandamide, arachidonoylethanolamide]
IC50 ([1]; 2.5 µM isoproterenol): 133 µM | attenuation of cAMP formation in HEK293-mAC5 cells ([1]; 100 µM anandamide, 2.5 µM isoproterenol): 23% | HEK-mAC activity (%); 100%= 2.5µM Isoproterenol stimulation, HEK-mAC5 ([1]; Anandamide 1 µM): 110% and 105% and 81% and 111% and 118% and 98% and 96% and 86% | HEK-mAC activity (%); 100%= 2.5µM Isoproterenol stimulation, HEK-mAC5 ([1]; Anandamide 3 µM): 110% and 102% and 93% and 132% | HEK-mAC activity (%); 100%= 2.5µM Isoproterenol stimulation, HEK-mAC5 ([1]; Anandamide 10 µM): 108% and 103% and 116% and 87% and 120% and 105% and 102% | HEK-mAC activity (%); 100%= 2.5µM Isoproterenol stimulation, HEK-mAC5 ([1]; Anandamide 30 µM): 98% and 88% and 95% and 102% | HEK-mAC activity (%); 100%= 2.5µM Isoproterenol stimulation, HEK-mAC5 ([1]; Anandamide 60 µM): 95% and 75% and 88% and 93% and 110% | HEK-mAC activity (%); 100%= 2.5µM Isoproterenol stimulation, HEK-mAC5 ([1]; Anandamide 100 µM): 79% and 86% and 94% and 77% and 62% and 71% | activity at 0.1 µM ([1]; HEK293, read-out: HEK-mAC activity (%), 100%= 2.5µM Isoproterenol stimulation, HEK-mAC5, Anandamide 0.1 µM): 100% | activity at 30 µM ([1]; HEK293, read-out: HEK-mAC activity (%), 100%= 2.5µM Isoproterenol stimulation, HEK-mAC5, Anandamide 30 µM): 100% | Effect on basal activity of HEK-mAC5 ([1]; up to 100 µM, data not shown, in words): no effect | attenuation of cAMP formation in HEK293-mAC5(membr)–AC3(cat) cells ([2]; 2.5 µM isoproterenol): 66% | IC50 ([2]; 2.5 µM isoproterenol, +0.5 mM IBMX): 60 µM | activity at 0.1 µM ([2]; read-out: HEK-mAC activity (%), 100%= 2.5µM Isoproterenol stimulation, HEK-mAC5-3, Anandamide 0.1 µM): 100% | activity at 100 µM ([2]; read-out: HEK-mAC activity (%), 100%= 2.5µM Isoproterenol stimulation, HEK-mAC5-3, Anandamide 100 µM): 41% | Effect on Gsα-stimulated mAC5(membr)–AC3(cat) chimera (mAC5(membr)–AC3(cat)): attenuated | IC50 (mAC5(membr)–AC3(cat); attenuation of 300 nM Gsα-stimulated activity): 29 µM | activity [%] (100% = 300nM Gsα stimulation) (mAC5(membr)–AC3(cat); mAC 5-3, 100µM Anandamide concentration, Figure 9 D): 41% and 69% and 72% and 65% and 48% and 42% | activity [%] (100% = 300nM Gsα stimulation) (mAC5(membr)–AC3(cat); mAC5-3, Anandamide 0.1 µM): 100% | activity [%] (100% = 300nM Gsα stimulation) (mAC5(membr)–AC3(cat); mAC5-3, Anandamide 1 µM): 126% and 93% and 106% and 127% and 130% and 123% | activity [%] (100% = 300nM Gsα stimulation) (mAC5(membr)–AC3(cat); mAC5-3, Anandamide 3 µM): 121% and 102% and 118% and 146% and 144% and 129% | activity [%] (100% = 300nM Gsα stimulation) (mAC5(membr)–AC3(cat); mAC5-3, Anandamide 10 µM): 109% and 100% and 102% and 111% and 132% and 115% | activity [%] (100% = 300nM Gsα stimulation) (mAC5(membr)–AC3(cat); mAC5-3, Anandamide 30 µM): 77% and 70% and 88% and 68% and 74% | activity [%] (100% = 300nM Gsα stimulation) (mAC5(membr)–AC3(cat); mAC5-3, Anandamide 100 µM): 72% and 65% and 48% and 42% and 41% and 69%

CCCCC/C=C\C/C=C\C/C=C\C/C=C\CCCC(=O)O [Arachidonic acid, Arachidonic ((5Z,8Z,11Z,14Z)-eicosatetraenoic) acid]
EC50 (mAC9): 7.5 µM | mAC9 activity (%);(100% = Gsα stimulation) stimulated by 300nM Gsα (mAC9; 1 µM fatty acid, 300 nM Gsα, single experiments): 99% and 60% and 111% and 93% | mAC9 activity (%);(100% = Gsα stimulation) stimulated by 300nM Gsα (mAC9; [3]): 234% and 150% and 190% and 172% and 188% and 135% | mAC9 activity [%] (100% = 300nM Gsα stimulation); 20µM fatty acid concentration (mAC9; [3]): 172% and 188% and 135% and 234% and 150% and 190%

CCCCCCCC/C=C\CCCCCCCC(=O)O [Oleic acid, Oleic ((9Z)-octadecenoic) acid]
Effect on isoproterenol-stimulated cAMP formation in HEK-mAC5 ([1]; 2.5 µM isoproterenol, in words): unaffected | AC activity (%); 100%= 2.5µM Isoproterenol stimulation ([1]; HEK-mAC5, oleic acid 20 µM): 107% and 100% and 135% | Effect on cAMP formation in HEK293-mAC5(membr)–AC3(cat) cells ([2]; in words, data not shown): ineffective | Effect of lipid on 300 nM Gsα-stimulated mAC9 (mAC9; 20 µM, in words): significantly enhanced | mAC9 activity [%] (100% = 300nM Gsα stimulation) (mAC9; Figure 5 B, oleic acid 0.3 µM): 100% | EC50 (mAC9; enhancement of 300 nM Gsα-stimulated activity, read-out: EC50 for mAC9): 7.8 µM | Effect on Gsα-stimulated mAC5(membr)–AC3(cat) chimera (mAC5(membr)–AC3(cat)): not enhanced
